Results from patent US12540143B2, “Methods and compositions for targeted protein degradation” (Ranok Therapeutics (Hangzhou) Co. Ltd., priority 2019, dated 2026).
pIC50: −log10 of the molar value.

Tested on: MV4-11 cells
Assay: MV4-11 Cytotoxicity Assay
Type: cell-based, human
Conditions: Homo sapiens, MV4-11, 72 h, read-out: MV4-11 cytotoxicity

`CCc1cc(-c2nnc(C(N)=O)n2-c2ccc(CN3CCN(CC4CCN(C(=O)C[C@@H]5N=C(c6ccc(Cl)cc6)c6c(sc(C)c6C)-n6c(C)nnc65)CC4)CC3)cc2)c(O)cc1O` [Compound 106, (S)-4-(4-((4-((1-(2-(4-(4-chlorophenyl)-2,3,9-trimethyl-6H-thieno[3,2-f][1,2,4]triazolo[4,3-a][1,4]diazepin-6-yl)acetyl)piperidin-4-yl)methyl)piperazin-1-yl)methyl)phenyl)-5-(5-ethyl-2,4-dihydroxyphenyl)-4H-1,2,4-triazole-3-carboxamide, trifluoroacetic acid] was tested. Which pIC50 did it give?
Its pIC50 is > 7.00.

Same assay, conditions: Homo sapiens, MV4-11; 72 hr, CCK-8; read-out: MV4-11 cytotoxicity

`CCN(Cc1ccc(OCCCNC(=O)C[C@@H]2N=C(c3ccc(Cl)cc3)c3c(sc(C)c3C)-n3c(C)nnc32)cc1)Cc1ccc(-n2c(O)nnc2-c2cc(C(C)C)c(O)cc2O)cc1` [Compound 100, (S)-2-(4-(4-chlorophenyl)-2,3,9-trimethyl-6H-thieno[3,2-f][1,2,4]triazolo[4,3-a][1,4]diazepin-6-yl)-N-(3-(4-(((4-(3-(2,4-dihydroxy-5-isopropylphenyl)-5-hydroxy-4H-1,2,4-triazol-4-yl)benzyl)(ethyl)amino)methyl)phenoxy)propyl)acetamide, formic acid] was tested. Which pIC50 did it give?
Its pIC50 is > 7.00.

How did the pIC50 turn out when `CCCc1cc(-c2nnc(O)n2-c2ccc(CN3CCN(CC4CCN(C(=O)C[C@@H]5N=C(c6ccc(Cl)cc6)c6c(sc(C)c6C)-n6c(C)nnc65)CC4)CC3)cc2)c(O)cc1O` [Compound 11, (S)-2-(4-(4-chlorophenyl)-2,3,9-trimethyl-6H-thieno[3,2-f][1,2,4]triazolo[4,3-a][1,4]diazepin-6-yl)-1-(4-((4-(4-(3-(2,4-dihydroxy-5-propylphenyl)-5-hydroxy-4H-1,2,4-triazol-4-yl)benzyl)piperazin-1-yl)methyl)piperidin-1-yl)ethan-1-one, trifluoroacetic acid] was run?
The pIC50 was > 7.00.

With `Cc1sc2c(c1C)C(c1ccc(Cl)cc1)=N[C@@H](CC(=O)N1CCC(CN3CCN(Cc4ccc(-n5c(C(=O)NCCN6CCCCC6)nnc5-c5ccc(O)cc5O)cc4)CC3)CC1)c1nnc(C)n1-2` [Compound 110, (S)-4-(4-((4-((1-(2-(4-(4-chlorophenyl)-2,3,9-trimethyl-6H-thieno[3,2-f][1,2,4]triazolo[4,3-a][1,4]diazepin-6-yl)acetyl)piperidin-4-yl)methyl)piperazin-1-yl)methyl)phenyl)-5-(2,4-dihydroxyphenyl)-N-(2-(piperidin-1-yl)ethyl)-4H-1,2,4-triazole-3-carboxamide, trifluoroacetic acid] as the compound, how does the pIC50 read?
The pIC50 was 6.00 to 7.00.

How did the pIC50 turn out when `Cc1sc2c(c1C)C(c1ccc(Cl)cc1)=N[C@@H](CCN(C)CCOc1ccc(-n3c(O)nnc3-c3cc(C(C)C)c(O)cc3O)cc1)c1nnc(C)n1-2` [Compound 65, (S)-4-(4-(4-(2-((2-(4-(4-chlorophenyl)-2,3,9-trimethyl-6H-thieno[3,2-f][1,2,4]triazolo[4,3-a][1,4]diazepin-6-yl)ethyl)(methyl)amino)ethoxy)phenyl)-5-hydroxy-4H-1,2,4-triazol-3-yl)-6-isopropylbenzene-1,3-diol] was run?
The pIC50 was 6.00 to 7.00.

With `Cc1sc2c(c1C)C(c1ccc(Cl)cc1)=N[C@@H](CC(=O)N(C)CCOc1ccc(CN(C)Cc3ccc(-n4c(O)nnc4-c4cc(C(C)C)c(O)cc4O)cc3)cc1)c1nnc(C)n1-2` [Compound 99, (S)-2-(4-(4-chlorophenyl)-2,3,9-trimethyl-6H-thieno[3,2-f][1,2,4]triazolo[4,3-a][1,4]diazepin-6-yl)-N-(2-(4-(((4-(3-(2,4-dihydroxy-5-isopropylphenyl)-5-hydroxy-4H-1,2,4-triazol-4-yl)benzyl)(methyl)amino)methyl)phenoxy)ethyl)-N-methylacetamide, formic acid] as the compound, how does the pIC50 read?
Its pIC50 is > 7.00.

`Cc1sc2c(c1C)C(c1ccc(Cl)cc1)=N[C@@H](CC(=O)N1CCN(Cc3ccc(-n4c(O)nnc4-c4cc(C(C)C)c(O)cc4O)cc3)CC1)c1nnc(C)n1-2` [Compound 38, 2-((6S)-4-(4-chlorophenyl)-2,3,9-trimethyl-6H-thieno[3,2-f][1,2,4]triazolo[4,3-a][1,4]diazepin-6-yl)-1-(4-(4-(3-(2,4-dihydroxy-5-isopropylphenyl)-5-hydroxy-4H-1,2,4-triazol-4-yl)benzyl)piperazin-1-yl)ethanone, trifluoroacetic acid] was tested. Which pIC50 did it give?
The pIC50 was > 7.00.

How did the pIC50 turn out when `CCNC(=O)c1nnc(-c2cc(CC)c(O)cc2O)n1-c1ccc(CC2CCN(CC3CCN(C(=O)C[C@@H]4N=C(c5ccc(Cl)cc5)c5c(sc(C)c5C)-n5c(C)nnc54)CC3)CC2)cc1` [Compound 87, (S)-4-(4-((1-((1-(2-(4-(4-chlorophenyl)-2,3,9-trimethyl-6H-thieno[3,2-f][1,2,4]triazolo[4,3-a][1,4]diazepin-6-yl)acetyl)piperidin-4-yl)methyl)piperidin-4-yl)methyl)phenyl)-N-ethyl-5-(5-ethyl-2,4-dihydroxyphenyl)-1H-1,2,414-triazole-3-carboxamide, trifluoroacetic acid] was run?
The pIC50 was > 7.00.

With `CCc1cc(-c2nnc(O)n2-c2ccc(CC3CCN(CC4CCN(C(=O)C[C@@H]5N=C(c6ccc(Cl)cc6)c6c(sc(C)c6C)-n6c(C)nnc65)CC4)CC3)cc2)c(O)cc1O` [Compound 88, (S)-2-(4-(4-chlorophenyl)-2,3,9-trimethyl-6H-thieno[3,2-f][1,2,4]triazolo[4,3-a][1,4]diazepin-6-yl)-1-(4-((4-(4-(3-(5-ethyl-2,4-dihydroxyphenyl)-5-hydroxy-4H-1,2,4-triazol-4-yl)benzyl)piperidin-1-yl)methyl)piperidin-1-yl)ethan-1-one, formic acid] as the compound, how does the pIC50 read?
The pIC50 was > 7.00.

`Cc1sc2c(c1C)C(c1ccc(Cl)cc1)=N[C@@H](CC(=O)N1CCC(CN3CCN(Cc4ccc(-n5c(C(=O)NC(C)C)nnc5-c5ccc(O)cc5O)cc4)CC3)CC1)c1nnc(C)n1-2` [Compound 119, (S)-4-(4-((4-((1-(2-(4-(4-chlorophenyl)-2,3,9-trimethyl-6H-thieno[3,2-f][1,2,4]triazolo[4,3-a][1,4]diazepin-6-yl)acetyl)piperidin-4-yl)methyl)piperazin-1-yl)methyl)phenyl)-5-(2,4-dihydroxyphenyl)-N-isopropyl-4H-1,2,4-triazole-3-carboxamide, trifluoroacetic acid] was tested. Which pIC50 did it give?
Its pIC50 is > 7.00.

How did the pIC50 turn out when `Cc1sc2c(c1C)C(c1ccc(Cl)cc1)=N[C@@H](CC(=O)NCCOCc1ccc(-n3c(O)nnc3-c3cc(C(C)C)c(O)cc3O)cc1)c1nnc(C)n1-2` [Compound 52, 2-((6S)-4-(4-chlorophenyl)-2,3,9-trimethyl-6H-thieno[3,2-f][1,2,4]triazolo[4,3-a][1,4]diazepin-6-yl)-N-(2-((4-(3-(2,4-dihydroxy-5-isopropylphenyl)-5-hydroxy-4H-1,2,4-triazol-4-yl)benzyl)oxy)ethyl)acetamide] was run?
The pIC50 was 6.00 to 7.00.

How did the pIC50 turn out when `Cc1sc2c(c1C)C(c1ccc(Cl)cc1)=NC(CC(=O)N[C@H](C)c1ccc(CN3CCN(Cc4ccc(-n5c(O)nnc5-c5cc(C(C)C)c(O)cc5O)cc4)CC3)cc1)c1nnc(C)n1-2` (stereo in doubt) [Compound 70, 2-((6S)-4-(4-chlorophenyl)-2,3,9-trimethyl-6H-thieno[3,2-f][1,2,4]triazolo[4,3-a][1,4]diazepin-6-yl)-N—((R)-1-(4-((4-(4-(3-(2,4-dihydroxy-5-isopropylphenyl)-5-hydroxy-4H-1,2,4-triazol-4-yl)benzyl)piperazin-1-yl)methyl)phenyl)ethyl)acetamide, trifluoroacetic acid] was run?
The pIC50 was > 7.00.

How did the pIC50 turn out when `Cc1sc2c(c1C)C(c1ccc(Cl)cc1)=N[C@@H](CC(=O)N(C)[C@H](C)c1ccc(CN3CCC(Cc4ccc(-n5c(O)nnc5-c5cc(C(C)C)c(O)cc5O)cc4)CC3)cc1)c1nnc(C)n1-2` [Compound 93, 2-((S)-4-(4-chlorophenyl)-2,3,9-trimethyl-6H-thieno[3,2-f][1,2,4]triazolo[4,3-a][1,4]diazepin-6-yl)-N—((R)-1-(4-((4-(4-(3-(2,4-dihydroxy-5-isopropylphenyl)-5-hydroxy-4H-1,2,4-triazol-4-yl)benzyl)piperidin-1-yl)methyl)phenyl)ethyl)-N-methylacetamide, trifluoroacetic acid] was run?
The pIC50 was > 7.00.

How did the pIC50 turn out when `Cc1sc2c(c1C)C(c1ccc(Cl)cc1)=N[C@@H](CC(=O)N1CCC(CN3CCN(Cc4ccc(-n5c(C(N)=O)nnc5-c5ccc(O)cc5O)cc4)CC3)CC1)c1nnc(C)n1-2` [Compound 112, (S)-4-(4-((4-((1-(2-(4-(4-chlorophenyl)-2,3,9-trimethyl-6H-thieno[3,2-f][1,2,4]triazolo[4,3-a][1,4]diazepin-6-yl)acetyl)piperidin-4-yl)methyl)piperazin-1-yl)methyl)phenyl)-5-(2,4-dihydroxyphenyl)-4H-1,2,4-triazole-3-carboxamide, trifluoroacetic acid] was run?
Its pIC50 is > 7.00.

How did the pIC50 turn out when `Cc1sc2c(c1C)C(c1ccc(Cl)cc1)=N[C@@H](CCNCC1CCN(C(=O)C3CCN(Cc4ccc(-n5c(O)nnc5-c5cc(C(C)C)c(O)cc5O)cc4)CC3)C1)c1nnc(C)n1-2` (stereo partly drawn) [Compound 66, (3-(((2-((6S)-4-(4-chlorophenyl)-2,3,9-trimethyl-6H-thieno[3,2-f][1,2,4]triazolo[4,3-a][1,4]diazepin-6-yl)ethyl)amino)methyl)pyrrolidin-1-yl)(1-(4-(3-(2,4-dihydroxy-5-isopropylphenyl)-5-hydroxy-4H-1,2,4-triazol-4-yl)benzyl)piperidin-4-yl) methanone, trifluoroacetic acid] was run?
Its pIC50 is 6.00 to 7.00.

With `CCc1cc(-c2nnc(C(=O)NC(C)C)n2-c2ccc(CN3CCN(CC4CCN(C(=O)C[C@@H]5N=C(c6ccc(Cl)cc6)c6c(sc(C)c6C)-n6c(C)nnc65)CC4)CC3)cc2)c(O)cc1O` [Compound 105, (S)-4-(4-((4-((1-(2-(4-(4-chlorophenyl)-2,3,9-trimethyl-6H-thieno[3,2-f][1,2,4]triazolo[4,3-a][1,4]diazepin-6-yl)acetyl)piperidin-4-yl)methyl)piperazin-1-yl)methyl)phenyl)-5-(5-ethyl-2,4-dihydroxyphenyl)-N-isopropyl-4H-1,2,4-triazole-3-carboxamide, trifluoroacetic acid] as the compound, how does the pIC50 read?
The pIC50 was > 7.00.
